Biological target: T1, 11β-HSD 1 (Homo sapiens, UniProt P28845)
T1 construct: detecting cortisol generated from cortisterone by human liver microsomes; from tissue; host or cells: human liver microsomes
Experiment: In vitro inhibition of 11β-HSD 1, HTRF detection of cortisol generated by human liver microsomes
Assay type: biochemical
Conditions: 1 μM test compound, 100% indicates no inhibition, zero or below zero indicates complete inhibition (relative to carbenoxolone)
How it was run: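 Human liver microsomes with test compound were incubated 1 h at 37 °C in Tris buffer, pH 6.0, with 200 μM NADPH and 80 nM cortisone. Cortisol formed was detected by competitive HTRF immunoassay (665/615 nm ratio) and calibrated against a cortisol standard curve. Values are activities at 1 μM compound relative to carbenoxolone, where 100% indicates no inhibition.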

T1 sequence (P28845 whole entry): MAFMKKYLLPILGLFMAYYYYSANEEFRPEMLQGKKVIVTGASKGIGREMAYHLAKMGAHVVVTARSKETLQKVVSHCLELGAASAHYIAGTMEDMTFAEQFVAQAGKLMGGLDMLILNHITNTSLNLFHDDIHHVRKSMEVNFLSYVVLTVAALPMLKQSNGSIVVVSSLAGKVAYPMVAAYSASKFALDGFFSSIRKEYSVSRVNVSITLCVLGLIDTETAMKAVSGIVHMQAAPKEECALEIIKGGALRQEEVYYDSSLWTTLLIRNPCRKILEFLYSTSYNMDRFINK

## O=C(O)c1ccc([C@H]2C[C@H]3CC[C@@H](C2)N3C(=O)c2ccc3c(c2)OCCO3)cc1 [Example 158, endo-4-[8-(2,3-Dihydro-enzo[1,4]dioxine-6-carbonyl)-8-aza-bicyclo[3.2.1]oct-3-yl]-benzoic acid]
  Inhibitory activity on 11β-HSD 1, % CTL: 86 % CTL

## O=C(c1ccc2c(c1)OCCO2)N1[C@@H]2CC[C@H]1C[C@@H](c1ccc(Oc3ccccc3)cc1)C2 [Example 152, endo-(2,3-Dihydro-benzo[1 ,4]dioxin-6-yl)-[3-(4-phenoxy-phenyl)-8-aza-bicyclo[3.2.1]oct-8-yl]-methanone]
  Inhibitory activity on 11β-HSD 1, % CTL: 5 % CTL

## Cn1c(=O)[nH]c2cc(C(=O)N3[C@@H]4CC[C@H]3C[C@@H](c3ccc(F)cc3)C4)ccc21 [Example 59, endo-5-[3-(4-Fluoro-phenyl)-8-aza-bicyclo[3.2.1]octane-8-carbonyl]-1-methyl-1,3-dihydro-benzoimidazol-2-one]
  Inhibitory activity on 11β-HSD 1, % CTL: 95 % CTL

## O=C(c1ccc(O)nc1)N1[C@@H]2CC[C@H]1C[C@@H](c1ccc(F)cc1)C2 [Example 102, endo-[3-(4-Fluoro-phenyl)-8-aza-bicyclo[3.2.1]oct-8-yl]-(6-hydroxy-pyridin-3-yl)-methanone]
  Inhibitory activity on 11β-HSD 1, % CTL: 47 % CTL

## COC(=O)c1cccc(C(=O)N2[C@@H]3CC[C@H]2C[C@@H](c2ccc(F)cc2)C3)c1 [Example 61, endo-3-[3-(4-Fluoro-phenyl)-8-aza-bicyclo[3.2.1]octane-8-carbonyl]-benzoic acid methyl ester]
  Inhibitory activity on 11β-HSD 1, % CTL: 94 % CTL

## O=C(c1ccc2c(c1)CCCN2)N1[C@@H]2CC[C@H]1C[C@@H](c1ccc(F)cc1)C2 [Example 54, endo-[3-(4-Fluoro-phenyl)-8-aza-bicyclo[3.2.1]oct-8-yl]-(1,2,3,4-tetrahydro-quinolin-6-yl)-methanone]
  Inhibitory activity on 11β-HSD 1, % CTL: −56 % CTL

## Cc1cc2cc(C(=O)N3[C@@H]4CC[C@H]3C[C@@H](c3ccc(F)cc3)C4)ccc2[nH]1 [Example 50, endo-[3-(4-Fluoro-phenyl)-8-aza-bicyclo[3.2.1]oct-8-yl]-(2-methyl-1H-indol-5-yl)-methanone]
  Inhibitory activity on 11β-HSD 1, % CTL: 6 % CTL

## O=C(c1ccc2c(c1)OCCO2)N1C2CCC1CC(c1cccc(-c3ccccc3)c1)C2 (stereo not drawn) [Example 150, (3-Biphenyl-3-yl-8-aza-bicyclo[3.2.1]oct-8-yl)-(2,3-dihydro-benzo[1,4]dioxin-6-yl)-methanone]
  Inhibitory activity on 11β-HSD 1, % CTL: 62 % CTL

## O=C(c1cc(F)cc(F)c1)N1[C@@H]2CC[C@H]1C[C@@H](c1ccc(F)cc1)C2 [Example 12, endo-(3,5-Difluoro-phenyl)-[3-(4-fluoro-phenyl)-8-aza-bicyclo[3.2.1]oct-8-yl]-methanone]
  Inhibitory activity on 11β-HSD 1, % CTL: 85 % CTL

## N#Cc1cccc(C(=O)N2[C@@H]3CC[C@H]2C[C@@H](c2ccc(F)cc2)C3)c1 [Example 106, endo-3-[3-(4-Fluoro-phenyl)-8-aza-bicyclo[3.2.1]octane-8-carbonyl]-benzonitrile]
  Inhibitory activity on 11β-HSD 1, % CTL: 75 % CTL

## Cc1ccc([C@H]2C[C@H]3CC[C@@H](C2)N3C(=O)c2cccs2)cc1 [Example 15, endo-Thiophen-2-yl-(3-p-tolyl-8-aza-bicyclo[3.2.1]oct-8-yl)-methanone]
  Inhibitory activity on 11β-HSD 1, % CTL: 56 % CTL

## O=C(c1cc(F)c(O)c(Cl)c1)N1[C@@H]2CC[C@H]1C[C@@H](c1ccc(F)cc1)C2 [Example 179, endo-(3-Chloro-5-fluoro-4-hydroxy-phenyl)-[3-(4-fluoro-phenyl)-8-aza-bicyclo[3.2.1]oct-8-yl]-methanone]
  Inhibitory activity on 11β-HSD 1, % CTL: −11 % CTL

## O=C(c1ccc(-c2cnco2)cc1)N1[C@@H]2CC[C@H]1C[C@@H](c1ccc(F)cc1)C2 [Example 87, endo-[3-(4-Fluoro-phenyl)-8-aza-bicyclo[3.2.1]oct-8-yl]-(4-oxazol-5-yl-phenyl)-methanone]
  Inhibitory activity on 11β-HSD 1, % CTL: −2 % CTL

## O=C(c1cc(F)c(O)c(F)c1)N1[C@@H]2CC[C@H]1C[C@@H](c1ccc(F)cc1)C2 [Example 172, endo-(3,5-Difluoro-4-hydroxy-phenyl)-[3-(4-fluoro-phenyl)-8-aza-bicyclo[3.2.1]oct-8-yl]-methanone]
  Inhibitory activity on 11β-HSD 1, % CTL: 0 % CTL

## O=C(c1cc(Cl)c(O)c(Cl)c1)N1[C@@H]2CC[C@H]1C[C@@H](c1ccc(F)cc1)C2 [Example 163, endo-(3,5-Dichloro-4-hydroxy-phenyl)-[3-(4-fluoro-phenyl)-8-aza-bicyclo[3.2.1]oct-8-yl]-methanone]
  Inhibitory activity on 11β-HSD 1, % CTL: −7 % CTL

## CC(=O)c1ccccc1C(=O)N1[C@@H]2CC[C@H]1C[C@@H](c1ccc(F)cc1)C2 [Example 126, endo-1-{2-[3-(4-Fluoro-phenyl)-8-aza-bicyclo[3.2.1]octane-8-carbonyl]-phenyl}-ethanone]
  Inhibitory activity on 11β-HSD 1, % CTL: 63 % CTL

## CC(=O)Cc1ccc(C(=O)N2[C@@H]3CC[C@H]2C[C@@H](c2ccc(F)cc2)C3)cc1 [Example 58, endo-1-{4-[3-(4-Fluoro-phenyl)-8-aza-bicyclo[3.2.1]octane-8-carbonyl]-phenyl}-propan-2-one]
  Inhibitory activity on 11β-HSD 1, % CTL: 68 % CTL

## Cc1ccc(C(=O)N2[C@@H]3CC[C@H]2C[C@@H](c2ccc(F)cc2)C3)c(C)c1 [Example 122, endo-(2,4-Dimethyl-phenyl)-[3-(4-fluoro-phenyl)-8-aza-bicyclo[3.2.1]oct-8-yl]-methanone]
  Inhibitory activity on 11β-HSD 1, % CTL: 63 % CTL

## O=C(c1cccc(Cl)c1)N1[C@@H]2CC[C@H]1C[C@@H](c1ccc(F)cc1)C2 [Example 125, endo-(3-Chloro-phenyl)-[3-(4-fluoro-phenyl)-8-aza-bicyclo[3.2.1]oct-8-yl]-methanone]
  Inhibitory activity on 11β-HSD 1, % CTL: 7 % CTL

## NCc1ccc(C2CC3CCC(C2)N3C(=O)c2ccc3c(c2)OCCO3)cc1 (stereo not drawn) [Example 146, [3-(4-Aminomethyl-phenyl)-8-aza-bicyclo[3.2.1]oct-8-yl]-(2,3-dihydro-benzo[1,4]dioxin-6-yl)-methanone]
  Inhibitory activity on 11β-HSD 1, % CTL: 96 % CTL

## Cc1ccc([C@H]2C[C@H]3CC[C@@H](C2)N3C(=O)c2ccc3c(c2)OCCO3)cc1 [Example 138, endo-(2,3-Dihydro-benzo[1,4]dioxin-6-yl)-(3-p-tolyl-8-aza-bicyclo[3.2.1]oct-8-yl)-methanone]
  Inhibitory activity on 11β-HSD 1, % CTL: 4 % CTL

## COC(=O)c1ccc(C(=O)N2[C@@H]3CC[C@H]2C[C@@H](c2ccc(C)cc2)C3)s1 [Example 9, endo-5-(3-p-Tolyl-8-aza-bicyclo[3.2.1]octane-8-carbonyl)-thiophene-2-carboxylic acid methyl ester]
  Inhibitory activity on 11β-HSD 1, % CTL: 87 % CTL

## Cc1cc(C(=O)N2[C@@H]3CC[C@H]2C[C@@H](c2ccc(F)cc2)C3)cc(C)c1O [Example 164, endo-[3-(4-Fluoro-phenyl)-8-aza-bicyclo[3.2.1]oct-8-yl]-(4-hydroxy-3,5-dimethyl-phenyl)-methanone]
  Inhibitory activity on 11β-HSD 1, % CTL: −29 % CTL

## CC(=O)c1ccc(C(=O)N2[C@@H]3CC[C@H]2C[C@@H](c2ccc(F)cc2)C3)cc1 [Example 128, endo-1-{4-[3-(4-Fluoro-phenyl)-8-aza-bicyclo[3.2.1]octane-8-carbonyl]-phenyl}-ethanone]
  Inhibitory activity on 11β-HSD 1, % CTL: 79 % CTL

## O=C1NCCN1c1cccc(C(=O)N2[C@@H]3CC[C@H]2C[C@@H](c2ccc(F)cc2)C3)c1 [Example 60, endo-1-{3-[3-(4-Fluoro-phenyl)-8-aza-bicyclo[3.2.1]octane-8-carbonyl]-phenyl}-imidazolidin-2-one]
  Inhibitory activity on 11β-HSD 1, % CTL: 63 % CTL

## Cc1nc2cc(C(=O)N3[C@@H]4CC[C@H]3C[C@@H](c3ccc(F)cc3)C4)ccc2c(=O)[nH]1 [Example 69, endo-7-[3-(4-Fluoro-phenyl)-8-aza-bicyclo[3.2.1]octane-8-carbonyl]-2-methyl-3H-quinazolin-4-one]
  Inhibitory activity on 11β-HSD 1, % CTL: 93 % CTL

## O=C(c1ccc2c(c1)OCCO2)N1[C@@H]2CC[C@H]1C[C@@H](c1ccc(F)cc1F)C2 [Example 160, endo-[3-(2,4-Difluoro-phenyl)-8-aza-bicyclo[3.2.1]oct-8-yl]-(2,3-dihydro-benzo[1,4]dioxin-6-yl)-methanone]
  Inhibitory activity on 11β-HSD 1, % CTL: −26 % CTL

## O=C(c1ccc2c(c1)OCO2)N1[C@@H]2CC[C@H]1C[C@@H](c1ccc(F)cc1)C2 [Example 114, endo-Benzo[1,3]dioxol-5-yl-[3-(4-fluoro-phenyl)-8-aza-bicyclo[3.2.1]oct-8-yl]-methanone]
  Inhibitory activity on 11β-HSD 1, % CTL: −10 % CTL

## Nc1ccc(C(=O)N2[C@@H]3CC[C@H]2C[C@@H](c2ccc(F)cc2)C3)cc1Cl [Example 173, endo-(4-Amino-3-chloro-phenyl)-[3-(4-fluoro-phenyl)-8-aza-bicyclo[3.2.1]oct-8-yl]-methanone]
  Inhibitory activity on 11β-HSD 1, % CTL: −46 % CTL

## COc1ccc(C(=O)N2[C@@H]3CC[C@H]2C[C@@H](c2ccc(F)cc2)C3)cc1C [Example 170, endo-[3-(4-Fluoro-phenyl)-8-aza-bicyclo[3.2.1]oct-8-yl]-(4-methoxy-3-methyl-phenyl)-methanone]
  Inhibitory activity on 11β-HSD 1, % CTL: −34 % CTL

## O=C(c1ccc(F)cc1)N1[C@@H]2CC[C@H]1C[C@@H](c1ccc(F)cc1)C2 [Example 103, endo-(4-Fluoro-phenyl)-[3-(4-fluoro-phenyl)-8-aza-bicyclo[3.2.1]oct-8-yl]-methanone]
  Inhibitory activity on 11β-HSD 1, % CTL: 32 % CTL

## NC(=O)c1cccc(C2CC3CCC(C2)N3C(=O)c2ccc3c(c2)OCCO3)c1 (stereo not drawn) [Example 149, 3-[8-(2,3-Dihydro-benzo[1,4]dioxine-6-carbonyl)-8-aza-bicyclo[3.2.1]oct-3-yl]-benzamide]
  Inhibitory activity on 11β-HSD 1, % CTL: 30 % CTL

## CS(=O)(=O)N1CCc2cc(C(=O)N3[C@@H]4CC[C@H]3C[C@@H](c3ccc(F)cc3)C4)ccc21 [Example 20, endo-[3-(4-Fluoro-phenyl)-8-aza-bicyclo[3.2.1]oct-8-yl]-(1-methanesulfonyl-2,3-dihydro-1H-indol-5-yl)-methanone]
  Inhibitory activity on 11β-HSD 1, % CTL: 87 % CTL

Source: patent US8609690B2, “Aryl- and heteroarylcarbonyl derivatives of substituted nortropanes, medicaments containing such compounds and their use” (Boehringer Ingelheim International GmbH, priority 2008, dated 2013)
